Assay results: ChEMBL document CHEMBL1201862, “PubChem BioAssay data set” (2004)
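96-well plates; 48 h exposure; 5 concentrations. Endpoints by linear interpolation between flanking doses. Not reached: highest tested concentration assigned. Here, GI50 denotes the concentration required for 50% inhibition of growth.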 Active and inactive are the calls of the source. Cut-off read from the data, not from the text of the source: active = GI50 up to about 1.1 µM and inactive = higher.

Columns and labels:
Assay in all cases: growth of human tumour cells (NCI), 48 h
UO-31 = tested on: UO-31
U-251 = tested on: U-251
CCRF-CEM = tested on: CCRF-CEM
HOP-62 = tested on: HOP-62
HCT-116 = tested on: HCT-116
OVCAR-3 = tested on: OVCAR-3
PC-3 = tested on: PC-3
MDA-MB-231 = tested on: MDA-MB-231
SF-539 = tested on: SF-539
OVCAR-4 = tested on: OVCAR-4
KM12 = tested on: KM12
K562 = tested on: K562
NCI-H460 = tested on: NCI-H460
HL-60 = tested on: HL-60
SK-MEL-28 = tested on: SK-MEL-28
CAKI-1 = tested on: CAKI-1
TK-10 = tested on: TK-10
SK-OV-3 = tested on: SK-OV-3
SK-MEL-5 = tested on: SK-MEL-5
RXF 393 = tested on: RXF 393

Measured: GI50

O=[N+]([O-])C(=C(Nc1ccccc1)Nc1ccccc1)/C(Cl)=C(\Cl)Br
inactive: UO-31 10.1 µM | U-251 15 µM | CCRF-CEM 2.15 µM | HOP-62 22 µM | HCT-116 6.05 µM | OVCAR-3 5.18 µM | PC-3 15.6 µM | MDA-MB-231 15.6 µM | SF-539 22 µM | OVCAR-4 11.9 µM | KM12 12.3 µM | K562 2.92 µM | NCI-H460 21.3 µM | HL-60 1.76 µM | SK-MEL-28 13.6 µM

CCCCCCC(CCl)c1sc(-c2csc(CCNC(=O)OC(C)(C)C)n2)nc1C(=O)OC (stereo not given)
inactive: UO-31 14.9 µM | U-251 16.2 µM | CCRF-CEM 17.2 µM | HOP-62 39.8 µM | HCT-116 15.5 µM | OVCAR-3 21.9 µM | PC-3 15.9 µM | MDA-MB-231 26.9 µM | CAKI-1 29 µM | SF-539 21.4 µM | TK-10 20.4 µM | OVCAR-4 9.98 µM | KM12 17.8 µM | K562 13.5 µM | SK-OV-3 19.1 µM | NCI-H460 18.2 µM | HL-60 17.3 µM | SK-MEL-28 28.6 µM | SK-MEL-5 4.37 µM

COc1ccc2c(c1)OCC1Cc3cccc(OC)c3OC21 (stereo not given)
inactive: UO-31 30.3 µM | U-251 > 100 µM | CCRF-CEM 40 µM | HOP-62 > 100 µM | HCT-116 45.1 µM | OVCAR-3 51.2 µM | PC-3 35.6 µM | MDA-MB-231 60.7 µM | CAKI-1 > 100 µM | SF-539 > 100 µM | TK-10 40.3 µM | KM12 65 µM | SK-OV-3 > 100 µM | SK-MEL-5 17.7 µM

Cc1c(-c2ccc(O)c(O)c2)oc(=O)c2c(O)cccc12
inactive: UO-31 11.1 µM | U-251 12.1 µM | CCRF-CEM 3.08 µM | HOP-62 10.7 µM | RXF 393 12.4 µM | HCT-116 6.56 µM | OVCAR-3 11.6 µM | PC-3 12.9 µM | CAKI-1 7.35 µM | SF-539 12.5 µM | TK-10 12.2 µM | OVCAR-4 11.7 µM | KM12 10.1 µM | K562 4.85 µM | SK-OV-3 6.04 µM | NCI-H460 11.6 µM | HL-60 3.88 µM | SK-MEL-5 10.4 µM

CCCCN(CCCC)CCC(O)c1cc(-c2ccc(C(F)(F)F)cc2)nc(-c2ccc(C(F)(F)F)cc2)c1 (stereo not given)
inactive: UO-31 > 100 µM | U-251 > 100 µM | CCRF-CEM > 100 µM | HOP-62 > 100 µM | HCT-116 > 100 µM | OVCAR-3 > 100 µM | PC-3 > 100 µM | MDA-MB-231 > 100 µM | CAKI-1 > 100 µM | SF-539 > 100 µM | TK-10 > 100 µM | OVCAR-4 > 100 µM | K562 > 100 µM | NCI-H460 > 100 µM | HL-60 > 100 µM | SK-MEL-28 > 100 µM

CS(=O)(=O)Nc1ccc(N2Cc3c[nH]c4ccc5nccc2c5c34)cc1
inactive: UO-31 > 100 µM | U-251 15.4 µM | CCRF-CEM 7.33 µM | HOP-62 17.5 µM | HCT-116 9.14 µM | OVCAR-3 9.98 µM | PC-3 16.1 µM | MDA-MB-231 13.6 µM | CAKI-1 31.5 µM | TK-10 23 µM | OVCAR-4 14 µM | KM12 17.6 µM | K562 11.4 µM | NCI-H460 19.4 µM | HL-60 29 µM | SK-MEL-28 18.9 µM | SK-MEL-5 14.7 µM

CC(C)CCn1c(=O)c2c(=O)[nH][nH]c2c2ccccc21
inactive: UO-31 > 100 µM | U-251 > 100 µM | CCRF-CEM > 100 µM | HOP-62 > 100 µM | HCT-116 > 100 µM | OVCAR-3 > 100 µM | PC-3 > 100 µM | MDA-MB-231 > 100 µM | SF-539 > 100 µM | TK-10 > 100 µM | OVCAR-4 > 100 µM | KM12 > 100 µM | K562 > 100 µM | NCI-H460 > 100 µM | HL-60 > 100 µM | SK-MEL-28 > 100 µM | SK-MEL-5 > 100 µM

O=C(NC(CS)C(=O)O)c1cccc2c(=O)c3ccccc3[nH]c12 (stereo not given)
inactive: UO-31 > 100 µM | U-251 > 100 µM | HOP-62 > 100 µM | HCT-116 > 100 µM | OVCAR-3 > 100 µM | PC-3 > 100 µM | MDA-MB-231 > 100 µM | TK-10 > 100 µM | OVCAR-4 > 100 µM | KM12 > 100 µM | K562 > 100 µM | SK-OV-3 > 100 µM | HL-60 > 100 µM | SK-MEL-28 > 100 µM | SK-MEL-5 > 100 µM

CO/N=C(\C(=O)Nn1cn[n+](CC(=O)[O-])c1)c1csc(N)n1
inactive: CCRF-CEM > 10 µM | HOP-62 > 10 µM | HCT-116 > 10 µM | MDA-MB-231 > 10 µM | CAKI-1 > 10 µM | TK-10 > 10 µM | OVCAR-4 > 10 µM | KM12 > 10 µM | K562 > 10 µM | SK-OV-3 > 10 µM | NCI-H460 > 10 µM | HL-60 > 10 µM | SK-MEL-28 > 10 µM | SK-MEL-5 > 10 µM
